Consider 36 compounds from patent US20230083973A1, “SUBSTITUTED CYCLOPROPYL-2,2'-BIP[…], ANALOGUES THEREOF, AND METHODS USING SAME” (priority 2019, published 2023).

pEC50: −log10 of the molar value.

The subject of one test is HBsAg. As to the kind of experiment: HBsAg assay: inhibition of HBsAg in HepG2.2.15 cells (chemiluminescence immunoassay of supernatant). The class given is cell-based, hepatitis B virus. Particulars: Hepatitis B virus, HepG2.2.15, 144 h, read-out: sAg EC50, HepG2.2.15 cells; HBsAg in supernatant at day 6 after exposure to compound; 0.5% DMSO. The essentials: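 Secreted HBsAg quantified by CLIA in day-6 supernatants of HepG2.2.15 cultures given compound dilutions at 0.5% final DMSO, with one compound/medium replenishment after 2–3 days. Dose-response fits gave EC50 (50% inhibition); viability checked separately by CellTiter-Glo.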
Consider `Fc1cc([C@@H]2C[C@H]2c2cnc(-c3ncccn3)nc2)cc(F)c1OC1CC2(COC2)C1` (relative stereo) [Example 242, trans-5-(2-(4-((2-Oxaspiro[3.3]heptan-6-yl)oxy)-3,5-difluorophenyl)cyclopropyl)-2,2′-bipyrimidine], for which the pEC50 is 6.41.
Regarding `COCCCn1cnc2c(F)cc([C@@H]3C[C@H]3c3cnc(-c4ncccn4)nc3)cc21` (relative stereo) [Example 274, trans-6-(2-([2,2′-Bipyrimidin]-5-yl)cyclopropyl)-4-fluoro-1-(3-methoxypropyl)-1H-benzo[d]imidazole], the negative-log EC50 (pEC50) is 7.19.
The same measure, in the same setting: the result for `COc1cc([C@@H]2C[C@H]2c2cnc(-c3ncccn3)nc2C)ccc1F` (relative stereo) [Example 16, trans-5-(2-(4-Fluoro-3-methoxyphenyl)cyclopropyl)-4-methyl-2,2′-bipyrimidine] reads 6.12; that for `Fc1cc(F)c2nc([C@@H]3C[C@H]3c3cnc(-c4ncccn4)nc3)sc2c1` (relative stereo) [Example 270, trans-2-(2-([2,2′-Bipyrimidin]-5-yl)cyclopropyl)-4,6-difluorobenzo[d]thiazole], 6.30; that for `CO[C@@H]1CCN(c2cc(C3CC3c3cnc(-c4ncccn4)nc3)cc(Cl)c2F)C1` (single isomer, unassigned) [Example 110], 6.72.
In the case of `Fc1ccc([C@@H]2C[C@H]2c2ccnc(-c3ncccn3)n2)cc1F` (relative stereo) [Example 4, trans-4-(2-(3,4-Difluorophenyl)cyclopropyl)-2,2′-bipyrimidine], the pEC50 was 5.15.
The same measure, in the same setting: the result for `Fc1cc([C@@H]2C[C@H]2c2cnc(-c3ncccn3)nc2)cc(-n2cccn2)c1F` (single isomer, unassigned) [Example 253, trans-5-(2-(3,4-difluoro-5-(1H-pyrazol-1-yl)phenyl)cyclopropyl)-2,2′-bipyrimidine] reads 7.54.

Staying with this test, now noted: read-out: sAg EC50; HepG2.2.15 cells; HBsAg in supernatant at day 6 after exposure to compound; 0.5% DMSO.
Regarding `CN(C)C(=O)c1cc(C2CC2c2cnc(-c3ncccn3)nc2)ccc1Cl` (single isomer, unassigned) [Example 204, trans-5-(2-([2,2′-Bipyrimidin]-5-yl)cyclopropyl)-2-chloro-N,N-dimethylbenzamide], the pEC50 is 5.40.
The same measure, in the same setting: the same measure for `Fc1ccc(C2CC2c2cnc(-c3ncccn3)nc2)cc1F` (single isomer, unassigned) [Example 15, trans-5-(2-(3,4-Difluorophenyl)cyclopropyl)-2,2′-bipyrimidine]: 7.12; for `Fc1ccc(C2CC2c2cnc(-c3ncccn3)nc2)cc1N1CCCC1` (single isomer, unassigned) [Example 20, trans-5-(2-(4-Fluoro-3-(pyrrolidin-1-yl)phenyl)cyclopropyl)-2,2′-bipyrimidine]: 7.64; for `COCCCOc1cc(C2CC2c2cnc(-c3ncccn3)nc2)cc(F)c1F` (single isomer, unassigned) [Example 131, trans-5-(2-(3,4-Difluoro-5-(3-methoxypropoxy)phenyl)cyclopropyl)-2,2′-bipyrimidine]: 7.82.
Regarding `Fc1cc(C2CC2c2cnc(-c3ncccn3)nc2)cc(O[C@@H]2CCOC2)c1F` (single isomer, unassigned) [Example 247], the pEC50 was 7.12.
`CO[C@@H]1CCN(c2cc(C3CC3c3cnc(-c4ncccn4)nc3)cc(Cl)c2F)C1` (single isomer, unassigned) [Example 111]: the pEC50 is 6.92.
Still for that read-out and setting: the result for `COc1cc(C2CC2c2cnc(-c3ncccn3)nc2-c2ccc3nc(C)sc3c2)ccc1F` (single isomer, unassigned) [Example 141, trans-6-(5-(2-(4-Fluoro-3-methoxyphenyl)cyclopropyl)-[2,2′-bipyrimidin]-4-yl)-2-methylbenzo[d]thiazole] reads 5.92.
Regarding `Fc1cc(C2CC2c2cnc(-c3ncccn3)nc2)cc(NC2CCCC2)c1F` (single isomer, unassigned) [Example 207, trans-5-(2-([2,2′-Bipyrimidin]-5-yl)cyclopropyl)-N-cyclopentyl-2,3-difluoroaniline], the pEC50 was 6.12.
The same measure, in the same setting: the result for `Fc1cc(C2CC2c2cnc(-c3ncccn3)nc2)cc(N2CCC3(COC3)C2)c1F` (single isomer, unassigned) [Example 222, trans-6-(5-(2-([2,2′-Bipyrimidin]-5-yl)cyclopropyl)-2,3-difluorophenyl)-2-oxa-6-azaspiro[3.4]octane] reads 6.72; that for `OC1CN(c2cc(C3CC3c3cnc(-c4ncccn4)nc3)ccc2F)C1` (single isomer, unassigned) [Example 54, trans-1-(5-(2-([2,2′-Bipyrimidin]-5-yl)cyclopropyl)-2-fluorophenyl)azetidin-3-ol], 6.66; that for `Fc1cn(-c2cc(C3CC3c3cnc(-c4ncccn4)nc3)cc(F)c2F)cc1F` (single isomer, unassigned) [Example 258, trans-5-(2-(3-(3,4-Difluoro-1H-pyrrol-1-yl)-4,5-difluorophenyl)cyclopropyl)-2,2′-bipyrimidine], 7.85.
On the same count and under the same terms, the result for `Fc1c(Cl)cc(C2CC2c2cnc(-c3ncccn3)nc2)cc1N1CCCC1` (single isomer, unassigned) [Example 108, trans-5-(2-(3-Chloro-4-fluoro-5-(pyrrolidin-1-yl)phenyl)cyclopropyl)-2,2′-bipyrimidine] reads 7.11.
On the same count and under the same terms, the same measure for `COc1cc(C2CC2c2cnc(-c3ncccn3)nc2)cc(OC)c1Cl` (single isomer, unassigned) [Example 98, trans-5-(2-(4-Chloro-3,5-dimethoxyphenyl)cyclopropyl)-2,2′-bipyrimidine]: 6.46.
With `CCCc1cc(F)c(OC)cc1C1CC1c1cnc(-c2ncccn2)nc1` (single isomer, unassigned) [Example 37, trans-5-(2-(4-Fluoro-5-methoxy-2-propylphenyl)cyclopropyl)-2,2′-bipyrimidine], the pEC50 is 5.70.
As for `COCCOc1cc(C2CC2c2cnc(-c3ncccn3)nc2)ccc1F` (single isomer, unassigned) [Example 21, trans-5-(2-(4-Fluoro-3-(2-methoxyethoxy)phenyl)cyclopropyl)-2,2′-bipyrimidine], the negative-log EC50 (pEC50) was 6.31.
Regarding `Fc1cc(C2CC2c2cnc(-c3ncccn3)nc2)cc(N2CC3(CCOCC3)C2)c1F` (single isomer, unassigned) [Example 137, trans-2-(5-(2-([2,2′-Bipyrimidin]-5-yl)cyclopropyl)-2,3-difluorophenyl)-7-oxa-2-azaspiro[3.5]nonane], the pEC50 is 7.13.
As for `COc1cc(F)ccc1C1CC1c1cnc(-c2ncccn2)nc1` (single isomer, unassigned) [Example 8, trans-5-(2-(4-Fluoro-2-methoxyphenyl)cyclopropyl)-2,2′-bipyrimidine], the negative-log EC50 (pEC50) was 6.35.
With `O[C@@H]1CCN(c2cc(C3CC3c3cnc(-c4ncccn4)nc3)ccc2F)C1` (single isomer, unassigned) [Example 70], the pEC50 was 6.57.
Still for that read-out and setting: the result for `COCCOc1cc(F)c(Cl)cc1C1CC1c1cnc(-c2ncccn2)nc1` (single isomer, unassigned) [Example 156, trans-5-(2-(5-Chloro-4-fluoro-2-(2-methoxyethoxy)phenyl)cyclopropyl)-2,2′-bipyrimidine] reads 6.72; that for `COc1cc(C2CC2c2cnc(-c3ncccn3)nc2)cc(OC)c1F` (single isomer, unassigned) [Example 146, trans-5-(2-(4-Fluoro-3,5-dimethoxyphenyl)cyclopropyl)-2,2′-bipyrimidine], 6.96; that for `COc1cc(C2CC2c2ccc(-c3ncccn3)nc2)cc(F)c1F` (single isomer, unassigned) [Example 125, trans-2-(5-(2-(3,4-Difluoro-5-methoxyphenyl)cyclopropyl)pyridin-2-yl)pyrimidine], 8.40.
On the same count and under the same terms, the result for `COc1cc(C2CC2c2cnc(-c3ncccn3)nc2C(C)C)ccc1F` (single isomer, unassigned) [Example 74, trans-5-(2-(4-Fluoro-3-methoxyphenyl)cyclopropyl)-4-isopropyl-2,2′-bipyrimidine] reads 5.00; that for `COc1cc(C2CC2c2cnc(-c3ncccn3)nc2)ccc1F` (single isomer, unassigned) [Example 11, trans-5-(2-(4-Fluoro-3-methoxyphenyl)cyclopropyl)-2,2′-bipyrimidine], 6.14.
Regarding `COc1cc(F)ccc1C1CC1c1cnc(-c2ncccn2)nc1` (single isomer, unassigned) [Example 9, trans-5-(2-(4-Fluoro-2-methoxyphenyl)cyclopropyl)-2,2′-bipyrimidine], the pEC50 is 7.07.
`CC(=O)N1CC[C@@H](Nc2cc(C3CC3c3cnc(-c4ncccn4)nc3)cc(F)c2F)C1` (single isomer, unassigned) [Example 227]: the pEC50 was 6.57.
Still for that read-out and setting: the same measure for `COCCCOc1cc(C2CC2c2cnc(-c3ncccn3)nc2)cc(F)c1F` (single isomer, unassigned) [Example 130, trans-5-(2-(3,4-Difluoro-5-(3-methoxypropoxy)phenyl)cyclopropyl)-2,2′-bipyrimidine]: 6.59; for `CCc1cc(F)c(OC)cc1C1CC1c1cnc(-c2ncccn2)nc1` (single isomer, unassigned) [Example 36, trans-5-(2-(2-Ethyl-4-fluoro-5-methoxyphenyl)cyclopropyl)-2,2′-bipyrimidine]: 6.14.
Same read-out and setting: the result for `O=C1CCCN1c1cc(C2CC2c2cnc(-c3ncccn3)nc2)ccc1F` (single isomer, unassigned) [Example 197, trans-1-(5-(2-([2,2′-Bipyrimidin]-5-yl)cyclopropyl)-2-fluorophenyl)pyrrolidin-2-one] reads 5.52; that for `Fc1cc(C2CC2c2cnc(-c3ncccn3)nc2)cc(N2CCCC2)c1F` (single isomer, unassigned) [Example 93, trans-5-(2-(3,4-Difluoro-5-(pyrrolidin-1-yl)phenyl)cyclopropyl)-2,2′-bipyrimidine], 7.72.

Broadly, the pEC50 is the negative decadic logarithm of the EC50, by convention in mol/L.
